Experiments:
A. fumigatus infection [1] = assay: Quantification of colony forming units in organs of infected mice; format: in vivo, Balb/C mice
Description: In vivo efficacy of the compound against A. fumigatus infection was studied in the Balb/C mice of 6-8 weak of age of either sex, weighing 15-20 g each. The mice model of aspergillosis described by Dixon et al (1989), was used to study the effects of compound on in vivo infection of A. fumigatus.
The animals were housed in the micro-barrier cages on sterile bedding and fed ad libitum water and food. The mice were divided into 6 groups and each group contained 8-10 animals. The mice were infected experimentally with A. fumigatus. Three days prior to infection with conidia, mice were injected subcutaneously with 3 doses (250.0 mg/kg/day) of cortisone acetate in 400.0 μl of PBS. On the infection day, each mouse received 2×10^7 conidia by nasal instillation of a single droplet of conidial suspension. The animals of this model developed invasive aspergillosis and all the infected animals died within 4-6 days.
The mice were kept under constant watch and those getting moribund, dying or survived up to 10 days were sacrificed. The autopsy was performed on the mice who had died to remove their organs for quantification of colony forming units (CFU). The lungs, livers and kidneys of the mice were removed aseptically, placed in sterile PBS (pH 7.2) and homogenized with teflon pestle mortar. The CFU in the animals were determined by plating 10 fold dilutions of organ homogenates on Sabouraud dextrose agar containing 0.05% triton X-100. The triton X-100 limited the colony size and thus greatly facilitated colony counting (Frosco, 1992). After an incubation for 48 h at 37° C., colonies were counted and results were expressed as CFU per organ.
The fungal burden in the organs of the animals, which died or became moribund during study or those survived up to 10th day, was determined. The lungs, livers and kidneys of the animals were isolated, homogenized and the homogenate was used to culture the pathogen on Sabouraud dextrose agar plates. The colonies of the fungus were counted and expressed as colony forming units (CFU)/organ.

A. fumigatus infection [2] = assay: In vivo efficacy (survival) in mice model of aspergillosis; parameters: species or system Balb/C mice; settings: 7 doses
Description: The mice model of aspergillosis described by Dixon et al (1989), was used to study the effects of compound on in vivo infection of A. fumigatus.
The animals were housed in the micro-barrier cages on sterile bedding and fed ad libitum water and food. The mice were divided into 6 groups and each group contained 8-10 animals. The mice were infected experimentally with A. fumigatus. Three days prior to infection with conidia, mice were injected subcutaneously with 3 doses (250.0 mg/kg/day) of cortisone acetate in 400.0 μl of PBS. On the infection day, each mouse received 2×10^7 conidia by nasal instillation of a single droplet of conidial suspension.
A. fumigatus (190/96) isolate was grown on Sabouraud dextrose agar plates at 37° C. for 4 days. The conidia were collected from the culture plates using PBS (pH 7.2) containing 0.05% Tween 80 (Sigma Chemicals) and the suspension was filtered through sterile glass wool. The conidia were pelleted by centrifugation at 2000 rpm and re-suspended in PBS, pH 7.2. The number of conidia was counted and adjusted to 1×10^8 conidia/ml. The viability of the conidia was determined by plating the dilutions of suspensions on Sabouraud dextrose agar.
The purified compound (metelatropinyl ester) isolated from the D. metel was administered orally in the concentration ranging from 0.0, 25.0 50.0 100.0 200.0 and 400.0 mg/kg body weight to the mice infected experimentally with A. fumigatus.
The dosing of the animals (cortisone treated and challenged) with compound in 6 different groups was initiated within 30 min after challenge with A. fumigatus conidia.
Group I: The mice were treated orally with 7 doses of 25.0 mg/kg/day of the compound.
Group II: The animals infected with A. fumigatus conidia were given 50.0 mg/kg/day of the compound for 7 days orally.
Group III: The animals in this group were given 7 oral doses of 100.0 mg/kg/day of the compound.
Group IV: In this group of animals, 7 oral doses of the compound (200.0 mg/kg/day) were given.
Group V: The animals of this group were treated with 7 doses of 400.0 mg/kg/day orally over a period of 7 days.
Group VI: The animals of this group acted as control and were treated orally with 7 doses of 400 μl PBS containing solvent.
The animals were housed in properly labeled cages and kept under close watch for weight loss and the mortality. The survival rate over a period of 10 days was calculated and the fungal burden in survivors determined (Clemons and Stevens, 1994).
The Balb/C mice of 6-8 weak of age of either sex, weighing 15-20 g, were housed in micro-barrier cages on sterile bedding and fed ad libitum water and food. The animals were divided into 6 groups and each group contained 8-10 mice.

A. fumigatus = assay: Disc diffusion assay; format: cell-based; settings: concentration developing zone of inhibition of 6.0-mm diameter
Description: (§1) Pathogenic strains of fungi were obtained from the Mycology Department of Vallabhbhai Patel Chest Institute, Delhi. All the strains were grown on Sabouraud dextrose agar at 37° C. The conidia form these cultures were harvested and suspended in Sabouraud maltose broth. The number of conidia was counted using haemocytometer and their number in the suspension was adjusted to as per need of the experiment.
(§2) The disc diffusion test was performed as per described in the section of details of invention. Amphotericin B 1.25 μg/disc was used in assay as positive control standard drug. Additional discs impregnated with equivalent amount of solvent were also used in the assay as negative controls (FIG. 5).
The potency of the compound was determined with the help of standard curve constructed using amphotericin B as standard drug against A. fumigatus. Standard curve was prepared according to method given in the Indian Pharmacopoeia. The corrected values of diameter of zone of inhibition along with lowest and highest values were determined. These values were plotted on semilog paper to prepare standard curve. The value of diameter of zone of inhibition obtained for compound was put into the standard curve and corresponding dose producing the effect equivalent to amphotericin B was determined to find out the potency of the compound (FIG. 6).

A. niger = assay: Disc diffusion assay; format: cell-based
Description: as §1, §2

A. flavus = assay: Disc diffusion assay; format: cell-based; settings: concentration developing zone of inhibition of 6.0-mm diameter
Description: as §1, §2

CCCCC(=O)OC(C)CC1NCC(C)=C1C (centres unmarked) [PC-1, 2-(3,4-dimethyl-2,5-dihydro-1H-pyrrol-2-yl)-1-methylethyl pentanoate]
effect on colony counts in lung as compared to controls (A. fumigatus infection [1]; 400 mg/kg body weight, p<0.001): reduced the colony counts significantly
effect on number of CFUs in kidneys (A. fumigatus infection [1]; 100.0 to 400.0 mg/kg body weight): significant reduction
effect on the CFUs in the lung tissue (A. fumigatus infection [1]; doses of 25.0 and 50.0 mg/kg body weight): did not have any effect
effect on CFUs in liver (A. fumigatus infection [1]; liver): very less effect
survived up to 10th day (A. fumigatus infection [2]; 25.0 mg/kg body weight oral, 1 out of 10): 10%
survived up to 10th day (A. fumigatus infection [2]; 50.0 mg/kg body weight oral, 1 out of 8): 12.5%
survived up to 10th day (A. fumigatus infection [2]; 100.0 mg/kg body weight oral, 3 out of 9): 33.3%
survived up to 10th day (A. fumigatus infection [2]; 200.0 mg/kg body weight oral, 4 out of 9): 44.4%
survived up to 10th day (A. fumigatus infection [2]; 400.0 mg/kg body weight oral, 8 out of 10): 80%
MIC by disc diffusion assay (A. fumigatus): 5 μg/disc
MIC by disc diffusion assay (A. fumigatus; listed as antifungal lead molecule): 5.0 μg/disc
zone of inhibition at 20 µg/disc (A. niger; Aspergillus niger, 20.0 μg/disc, 48 hrs, read-out: Diameter of zone of inhibition): 9.4 mm
MIC by disc diffusion assay (A. niger; concentration developing zone of inhibition of 6.0-mm diameter): 5 μg/disc
MIC by disc diffusion assay (A. flavus): 5 μg/disc
